Key:
[1] = molecular target: baculovirus-expressed ALK (Homo sapiens, UniProt Q9UM73); assay: ALK Kinase Assay (ELISA/TRF, PLC-γ substrate); assay type: biochemical; conditions: read-out: ALK Kinase Inhibition (IC50); note: 1 µM ATP (Km level)
Summary of the method: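 GST-PLC-γ coat 10 μg/mL/TBS; 30 ng/ml ALK, 37° C, 15 min; Eu-PT66 anti-pTyr 1 h 37° C, enhancement, TRF. IC50: % inhib vs log10[cpd], variable-slope sigmoid.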

[2] = molecular target: T1, c-Met (cytoplasmic domain) (Homo sapiens, UniProt P08581); assay: c-Met Kinase Assay (ELISA/TRF, PLC-γ substrate); assay type: biochemical; conditions: 3 μM ATP (Km level); read-out: c-Met Kinase Inhibition (IC50)
T1 construct: Reactions were initiated with 30 ng/mL c-Met (cytoplasmic domain, Invitrogen Corporation #PV3143); purchased Invitrogen Corporation PV3143
T1 sequence (P08581 956-1390 limits assumed): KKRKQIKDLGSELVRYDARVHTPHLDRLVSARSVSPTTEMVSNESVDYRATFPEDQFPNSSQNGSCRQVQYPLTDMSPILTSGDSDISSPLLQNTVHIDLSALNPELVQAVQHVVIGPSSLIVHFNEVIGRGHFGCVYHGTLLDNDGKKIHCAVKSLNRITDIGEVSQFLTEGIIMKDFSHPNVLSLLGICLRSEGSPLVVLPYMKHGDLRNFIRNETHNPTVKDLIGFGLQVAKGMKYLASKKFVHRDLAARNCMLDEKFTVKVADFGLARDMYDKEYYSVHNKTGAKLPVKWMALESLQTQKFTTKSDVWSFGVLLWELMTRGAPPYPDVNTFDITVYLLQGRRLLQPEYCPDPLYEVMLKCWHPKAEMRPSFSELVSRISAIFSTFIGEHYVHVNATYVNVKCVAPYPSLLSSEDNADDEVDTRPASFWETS
Summary of the method: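 c-Met cytoplasmic domain (30 ng/mL) phosphorylates plate-coated GST–PLC-γ for 15 min at 37 °C. Phosphotyrosine detected with Eu-labeled PT66 antibody by time-resolved fluorescence. IC50 from variable-slope sigmoidal fit of % inhibition vs log concentration.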

Sequence of baculovirus-expressed ALK (Q9UM73 19-1620): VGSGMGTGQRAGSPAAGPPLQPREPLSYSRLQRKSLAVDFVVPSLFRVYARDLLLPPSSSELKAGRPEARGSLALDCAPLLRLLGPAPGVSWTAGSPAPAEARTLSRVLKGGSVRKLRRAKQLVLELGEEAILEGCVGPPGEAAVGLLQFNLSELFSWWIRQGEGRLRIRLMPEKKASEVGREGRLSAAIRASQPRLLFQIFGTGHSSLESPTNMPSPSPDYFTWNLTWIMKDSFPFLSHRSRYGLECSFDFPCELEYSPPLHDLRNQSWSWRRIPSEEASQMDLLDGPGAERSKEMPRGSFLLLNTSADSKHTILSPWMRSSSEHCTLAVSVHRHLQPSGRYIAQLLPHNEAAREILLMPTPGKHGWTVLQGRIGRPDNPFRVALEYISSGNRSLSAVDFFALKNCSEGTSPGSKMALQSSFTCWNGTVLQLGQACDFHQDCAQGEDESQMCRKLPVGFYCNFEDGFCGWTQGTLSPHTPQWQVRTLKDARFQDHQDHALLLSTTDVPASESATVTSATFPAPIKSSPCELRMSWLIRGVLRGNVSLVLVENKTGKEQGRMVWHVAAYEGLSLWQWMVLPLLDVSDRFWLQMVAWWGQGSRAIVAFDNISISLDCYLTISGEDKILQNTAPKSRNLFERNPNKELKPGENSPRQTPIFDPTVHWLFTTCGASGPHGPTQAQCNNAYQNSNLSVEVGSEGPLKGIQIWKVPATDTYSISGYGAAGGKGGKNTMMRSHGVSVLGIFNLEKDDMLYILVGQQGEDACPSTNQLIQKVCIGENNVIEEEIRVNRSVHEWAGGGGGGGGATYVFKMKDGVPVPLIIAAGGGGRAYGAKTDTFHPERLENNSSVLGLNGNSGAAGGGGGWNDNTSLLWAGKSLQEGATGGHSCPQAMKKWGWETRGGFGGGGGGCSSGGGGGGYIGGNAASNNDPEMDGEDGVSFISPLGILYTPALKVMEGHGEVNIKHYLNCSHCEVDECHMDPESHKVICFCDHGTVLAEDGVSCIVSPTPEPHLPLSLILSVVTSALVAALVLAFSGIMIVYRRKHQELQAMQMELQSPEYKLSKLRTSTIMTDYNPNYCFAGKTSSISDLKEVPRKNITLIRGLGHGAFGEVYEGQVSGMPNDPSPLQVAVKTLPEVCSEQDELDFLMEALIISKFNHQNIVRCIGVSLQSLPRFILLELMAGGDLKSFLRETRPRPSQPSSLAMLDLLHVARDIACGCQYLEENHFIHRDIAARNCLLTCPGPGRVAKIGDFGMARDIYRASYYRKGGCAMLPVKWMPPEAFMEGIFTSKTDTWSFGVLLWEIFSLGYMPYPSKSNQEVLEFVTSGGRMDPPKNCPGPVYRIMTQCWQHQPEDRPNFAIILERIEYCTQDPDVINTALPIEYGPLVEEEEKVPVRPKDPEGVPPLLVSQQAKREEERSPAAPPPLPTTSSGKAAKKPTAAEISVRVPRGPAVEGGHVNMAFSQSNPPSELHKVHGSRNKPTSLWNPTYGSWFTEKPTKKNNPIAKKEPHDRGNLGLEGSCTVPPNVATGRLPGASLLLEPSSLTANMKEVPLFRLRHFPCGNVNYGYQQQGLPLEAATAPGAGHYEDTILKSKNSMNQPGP

| melting point | IC50 [1] | IC50 [2] | Structure (SMILES) |
| --- | --- | --- | --- |
| 223 °C (dec.) | 0.1 to 1 µM | 10 to 100 µM | CN1CCN(C(=O)c2ccc(-c3cnc4c(c3)N(Cc3cc(F)ccc3F)C(=O)CN4)cc2)CC1 [Example 59, 1-(2,5-Difluorobenzyl)-7-[4-(4-methylpiperazine-1-carbonyl)phenyl]-3,4-dihydro-1H-pyrido[2,3-b]pyrazin-2-one] |
| 94 °C | > 100 µM | 10 to 100 µM | CN(C)CCCNC(=O)c1ccc(-c2cnc3c(c2)N(C(=O)c2ccccc2)CCN3)cc1 [Example 53, 4-(1-Benzoyl-1,2,3,4-tetrahydropyrido[2,3-b]pyrazin-7-yl)-N-(3-dimethylamino-propyl)benzamide] |
| > 200 °C | > 100 µM | > 100 µM | N#Cc1ccc(-c2cnc3c(c2)N(Cc2ccccc2)C(=O)CN3)cn1 [Example 28, 5-(1-Benzyl-2-oxo-1,2,3,4-tetrahydropyrido[2,3-b]pyrazin-7-yl)pyridine-2-carbonitrile] |
| > 200 °C | 10 to 100 µM | > 100 µM | O=C1CNc2ncc(-c3cccnc3)cc2N1Cc1c(Cl)cccc1Cl [Example 137, 1-(2,6-Dichlorobenzyl)-7-pyridin-3-yl-3,4-dihydro-1H-pyrido[2,3-b]pyrazin-2-one] |
| 198 to 201 °C | > 100 µM | > 100 µM | CC1(C)Nc2ncc(I)cc2N(Cc2cc(F)ccc2F)C1=O [Example 92, 1-(2,5-Difluorobenzyl)-7-iodo-3,3-dimethyl-3,4-dihydro-1H-pyrido[2,3-b]pyrazin-2-one] |
| 243 to 244 °C | 0.1 to 1 µM | 10 to 100 µM | O=C(c1ccc(-c2cnc3c(c2)N(Cc2cc(Cl)ccc2C(F)(F)F)CCN3)cc1)N1CCN(c2nccs2)CC1 [Example 288, (4-{1-[5-Chloro-2-(trifluoromethyl)benzyl]-1,2,3,4-tetrahydropyrido[2,3-b]pyrazin-7-yl}phenyl)-(4-thiazol-2-yl-piperazin-1-yl)methanone] |
| 195 °C | 10 to 100 µM | 10 to 100 µM | CCNC(=O)c1ccc(-c2cnc3c(c2)N(Cc2ccccc2)C(=O)CN3)cc1 [Example 27, 4-(1-Benzyl-2-oxo-1,2,3,4-tetrahydropyrido[2,3-b]pyrazin-7-yl)-N-ethyl-benzamide] |
| 250 to 251 °C | < 0.1 µM | 10 to 100 µM | Fc1ccc(F)c(CN2CCNc3ncc(-c4cnc(N5CCOCC5)nc4)cc32)c1Cl [Example 107, 1-(2-Chloro-3,6-difluorobenzyl)-7-(2-morpholin-4-yl-pyrimidin-5-yl)-1,2,3,4-tetrahydropyrido[2,3-b]pyrazine] |
| 174 °C | 0.1 to 1 µM | > 100 µM | CCOC(=O)c1cccc(-c2cnc3c(c2)N(Cc2cc(Cl)ccc2C(F)(F)F)CCN3)c1 [Example 194, 3-{1-[5-Chloro-2-(trifluoromethyl)benzyl]-1,2,3,4-tetrahydropyrido[2,3-b]pyrazin-7-yl}benzoic acid ethyl ester] |
| 231 °C (dec.) | > 100 µM | > 100 µM | O=C(O)c1cnc2c(c1)N(Cc1cc(F)ccc1F)CCN2 [Example 78, 1-(2,5-Difluorobenzyl)-1,2,3,4-tetrahydropyrido[2,3-b]pyrazine-7-carboxylic acid] |
| 186 °C (dec.) | 0.1 to 1 µM | 1 to 10 µM | O=C(c1ccc(-c2cnc3c(c2)N(Cc2cc(F)ccc2F)C(=O)CN3)cc1)N1CCC(N2CCCC2)CC1 [Example 60, 1-(2,5-Difluorobenzyl)-7-[4-(4-(pyrrolidin-1-yl)piperidine-1-carbonyl)phenyl]-3,4-dihydro-1H-pyrido[2,3-b]pyrazin-2-one] |
| 238 °C | 10 to 100 µM | 10 to 100 µM | CN1CCN(C(=O)c2ccc(-c3cnc4c(c3)N(Cc3cc(F)c(F)cc3F)C(=O)CN4)cc2)CC1 [Example 85, 7-[4-(4-Methylpiperazine-1-carbonyl)phenyl]-1-(2,4,5-trifluorobenzyl)-3,4-dihydro-1H-pyrido[2,3-b]pyrazin-2-one] |
| 177 to 178 °C | > 100 µM | 10 to 100 µM | CCOC(=O)c1ccc(-c2cnc3c(c2)N(C(=O)c2ccccc2)CCN3)cc1 [Example 44, 4-(1-Benzoyl-1,2,3,4-tetrahydropyrido[2,3-b]pyrazin-7-yl)benzoic acid ethyl ester] |
| 169 °C | 1 to 10 µM | > 100 µM | Clc1ccc(Cl)c(CN2CCNc3ncc(I)cc32)c1 [Example 158, 1-(2,5-Dichlorobenzyl)-7-iodo-1,2,3,4-tetrahydropyrido[2,3-b]pyrazine] |
| > 200 °C | 10 to 100 µM | > 100 µM | O=C1CNc2ncc(I)cc2N1Cc1cc(Cl)ccc1Cl [Example 155, 1-(2,5-Dichlorobenzyl)-7-iodo-3,4-dihydro-1H-pyrido[2,3-b]pyrazin-2-one] |
| 168 to 169 °C | > 100 µM | > 100 µM | CC1(C)CN(Cc2cc(F)ccc2F)c2cc(I)cnc2N1 [Example 93, 1-(2,5-Difluorobenzyl)-7-iodo-3,3-dimethyl-1,2,3,4-tetrahydropyrido[2,3-b]pyrazine] |
| 237 °C | 10 to 100 µM | > 100 µM | O=C1CNc2ncc(I)cc2N1Cc1c(F)ccc(F)c1Cl [Example 3, 1-(2-Chloro-3,6-difluorobenzyl)-7-iodo-3,4-dihydro-1H-pyrido[2,3-b]pyrazin-2-one] |
| > 200 °C | 1 to 10 µM | 10 to 100 µM | NC(=O)c1ccc(-c2cnc3c(c2)N(Cc2ccccc2)C(=O)CN3)cc1 [Example 23, 4-(1-Benzyl-2-oxo-1,2,3,4-tetrahydropyrido[2,3-b]pyrazin-7-yl)benzamide] |
| > 200 °C | > 100 µM | > 100 µM | CCOC(=O)c1ccc(-c2cnc3c(c2)NC(=O)CN3)cc1 [Example 135, 4-(2-Oxo-1,2,3,4-tetrahydropyrido[2,3-b]pyrazin-7-yl)benzoic acid ethyl ester] |
| 175 °C | 1 to 10 µM | 10 to 100 µM | Fc1ccc(F)c(CN2CCNc3ncc(I)cc32)c1 [Example 62, 1-(2,5-Difluorobenzyl)-7-iodo-1,2,3,4-tetrahydropyrido[2,3-b]pyrazine] |
| 145 to 147 °C | 10 to 100 µM | 10 to 100 µM | CN(C)CCNC(=O)c1ccc(-c2cnc3c(c2)N(C(=O)c2ccccc2)CCN3)cc1 [Example 52, 4-(1-Benzoyl-1,2,3,4-tetrahydropyrido[2,3-b]pyrazin-7-yl)-N-(2-dimethylamino-ethyl)benzamide] |
| > 300 °C | 0.1 to 1 µM | 1 to 10 µM | O=C(O)c1ccc(-c2cnc3c(c2)N(Cc2ccccc2)CCN3)cc1 [Example 36, 4-(1-Benzyl-1,2,3,4-tetrahydropyrido[2,3-b]pyrazin-7-yl)benzoic acid] |
| 180 °C | 0.1 to 1 µM | 1 to 10 µM | CN1CCN(C(=O)c2ccc(-c3cnc4c(c3)N(Cc3cc(F)ccc3F)CCN4)cc2)CC1 [Example 67, {4-[1-(2,5-Difluorobenzyl)-1,2,3,4-tetrahydropyrido[2,3-b]pyrazin-7-yl]phenyl}-(4-methylpiperazin-1-yl)methanone] |
| 166 to 168 °C | > 100 µM | > 100 µM | O=C(c1ccccc1)N1CCNc2ncccc21 [Example 41, (3,4-Dihydro-2H-pyrido[2,3-b]pyrazin-1-yl)phenylmethanone] |
| 154 to 156 °C | > 100 µM | 10 to 100 µM | Fc1cc(F)c(CN2CCNc3ncc(I)cc32)cc1F [Example 82, 7-Iodo-1-(2,4,5-trifluorobenzyl)-1,2,3,4-tetrahydropyrido[2,3-b]pyrazine] |
| 92 to 95 °C | 1 to 10 µM | 10 to 100 µM | CC(C)(C)OC(=O)N1CC=C(c2cnc3c(c2)N(Cc2cc(Cl)ccc2Cl)CCN3)CC1 [Example 130, 4-[1-(2,5-Dichlorobenzyl)-1,2,3,4-tetrahydropyrido[2,3-b]pyrazin-7-yl]-3,6-dihydro-2H-pyridine-1-carboxylic acid tert-butyl ester] |
| 134 °C | 0.1 to 1 µM | 0.1 to 1 µM | CC(C)CCn1cc(-c2cnc3c(c2)N(Cc2c(F)ccc(F)c2Cl)CCN3)cn1 [Example 191, 1-(2-Chloro-3,6-difluorobenzyl)-7-[1-(3-methylbutyl)-1H-pyrazol-4-yl]-1,2,3,4-tetrahydropyrido[2,3-b]pyrazine] |
| 221 to 222 °C | 1 to 10 µM | > 100 µM | N#Cc1cnc2c(c1)N(Cc1cc(Cl)ccc1Cl)CCN2 [Example 127, 1-(2,5-Dichlorobenzyl)-1,2,3,4-tetrahydropyrido[2,3-b]pyrazine-7-carbonitrile] |
| > 200 °C | > 100 µM | 10 to 100 µM | O=C1CNc2ncc(I)cc2N1Cc1cccc(F)c1C(F)(F)F [Example 178, 1-[3-Fluoro-2-(trifluoromethyl)benzyl]-7-iodo-3,4-dihydro-1H-pyrido[2,3-b]pyrazin-2-one] |
| 252 to 253 °C | 10 to 100 µM | > 100 µM | O=C1CNc2ncc(I)cc2N1Cc1cc(C(F)(F)F)ccc1Cl [Example 116, 1-(2-Chloro-5-trifluoromethylbenzyl)-7-iodo-3,4-dihydro-1H-pyrido[2,3-b]pyrazin-2-one] |
